pIC50: −log10 of the molar value.

For experiment [1], the target named is T1, calpain (calpain-1) in the kit (Homo sapiens, UniProt P07384).
T1 construct: purchased AnaSpec, Inc. AS-72149
T1 sequence (P07384 1-714): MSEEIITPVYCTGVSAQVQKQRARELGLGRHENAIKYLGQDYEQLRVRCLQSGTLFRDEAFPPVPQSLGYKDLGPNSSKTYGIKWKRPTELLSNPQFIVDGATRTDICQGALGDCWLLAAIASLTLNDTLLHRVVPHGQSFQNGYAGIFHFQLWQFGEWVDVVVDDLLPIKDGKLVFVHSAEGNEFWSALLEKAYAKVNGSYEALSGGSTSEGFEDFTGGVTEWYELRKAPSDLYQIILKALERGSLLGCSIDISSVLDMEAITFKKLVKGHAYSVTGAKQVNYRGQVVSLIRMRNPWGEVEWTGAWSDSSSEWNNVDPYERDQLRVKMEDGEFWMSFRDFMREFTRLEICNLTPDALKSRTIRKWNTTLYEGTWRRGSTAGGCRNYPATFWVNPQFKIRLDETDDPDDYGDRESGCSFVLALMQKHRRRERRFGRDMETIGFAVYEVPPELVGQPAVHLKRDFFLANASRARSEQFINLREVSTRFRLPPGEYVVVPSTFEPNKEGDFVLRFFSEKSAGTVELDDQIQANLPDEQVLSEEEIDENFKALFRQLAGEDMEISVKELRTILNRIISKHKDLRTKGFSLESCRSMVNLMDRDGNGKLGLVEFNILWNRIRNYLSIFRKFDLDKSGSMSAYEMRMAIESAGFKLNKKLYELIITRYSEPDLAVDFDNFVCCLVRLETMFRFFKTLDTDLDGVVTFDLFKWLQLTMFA
T1 sequence (P04632 1-268 partner): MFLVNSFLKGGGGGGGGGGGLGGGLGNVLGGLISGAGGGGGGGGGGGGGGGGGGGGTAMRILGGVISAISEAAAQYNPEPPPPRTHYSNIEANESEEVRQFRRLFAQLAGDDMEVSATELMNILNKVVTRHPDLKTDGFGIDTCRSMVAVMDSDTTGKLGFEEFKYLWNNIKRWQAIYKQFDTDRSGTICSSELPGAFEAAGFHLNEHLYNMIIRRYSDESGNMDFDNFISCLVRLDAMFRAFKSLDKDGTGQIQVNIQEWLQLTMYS
Put plainly: Calpain Inhibitory Activity Measurement 1 (SensorLyte 520 Calpain Activity Assay Kit, 5-FAM/QXL 520 substrate). The experiment is classed as biochemical. Particulars: inhibitor 0.062 μM; 5-FAM/QXL 520 5.0 μM; 37° C., 25 minutes; compared with SNJ-1945. How it is done: Calpain inhibitory activity was measured with SensorLyte™ 520 Calpain Activity Asay Kit (AnaSpec, Inc., AS-72149) in conformity with a method described in its assay protocol. SNJ-1945 (Medkoo Biosciences, Inc., Cat #564979), Compound 13, Compound 14, Compound 18, or Compound 19 serving as a calpain inhibitor and a calpain (calpain-1) in the kit were mixed with each other in Assay Buffer, and the mixture was incubated at 37° C. for 3 minutes. 5-FAM/QXL™ 520 serving as a calpain enzyme substrate was added to the incubated product to perform an enzyme reaction by the calpain at 37° C. for 25 minutes (the final concentration of each inhibitor was 0.062 μM, and the final concentration of 5-FAM/QXL™ 520 was 5.0 μM). In the enzyme reaction, the enzyme substrate is cleaved by the calpain to emit fluorescence. The emission fluorescence intensity of the substrate was detected with a plate reader (Infinite™ 200 PRO, TECAN) (at an excitation wavelength of 490 nm and a fluorescence wavelength of 520 nm). SNJ-1945 is a known calpain inhibitor, and has the following structure.

Experiment [2] concerns the target T2, calpain-1 from human erythrocytes (Homo sapiens, UniProt P07384).
T2 construct: calpain-1 from human erythrocytes; purchased Merck Millipore 208713; host or cells: human erythrocytes
T2 sequence (P07384 1-714): T1 sequence (P07384 1-714)
T2 sequence (P04632 1-268 partner): T1 sequence (P04632 1-268 partner)
Kind of experiment: Calpain Inhibitory Activity Measurement 2 (HMRG fluorescent probe, various inhibitor concentrations, IC50). The experiment is classed as biochemical. Conditions: fluorescent probe 5 μM; calpain-1 6.48 μg/mL; 37° C., 30 minutes; Tris buffer pH 7.4. Here is the method: Calpain-1 (calpain-1 from human erythrocytes, Cat. No. 208713, Merck Millipore) and a DMSO solution of a HMRG fluorescent probe for detecting calpain activity were added to each of 50 mM Tris buffers (pH: 7.4, 5 mM CaCl2), 2 mM DTE, 2 mM EGTA) containing various concentrations of SNJ-1945 or Compound 13 to perform fluorescence assays (the final concentration of the fluorescent probe was 5 μM, and the final concentration of calpain-1 was 6.48 μg/mL). […] The results are shown in FIG. 2 (concentrations shown in the figure each represent the final concentration of SNJ-1945 or Compound 13 in each assay). The following compound was used as the probe for detecting calpain activity.
An IC50 was determined on the basis of a graph produced with data analysis software “KaleidaGraph”. As a result, the IC50 of Compound 13 was 0.010 μM, and the IC50 of SNJ-1945 was 0.040 μM.

By pIC50 is commonly meant the IC50 on a negative log10 scale, so that one unit is a factor of ten. A low value points to a large IC50. As for `COCCOCCOC(=O)N[C@@H](CC(C)C)C(=O)N[C@@H](Cc1ccccc1)C(=O)C(=O)NC1CC1` [SNJ-1945, reference compound], the “enzyme inhibitory activity on the calpain (fluorescence increase amount, FIG. 1)” value in experiment [1] is given as “inhibited”. Also, the negative-log IC50 (pIC50) in experiment [2] is 7.40.
Take `C#CCOCC(=O)N[C@@H](CC(C)C)C(=O)N[C@@H](Cc1ccccc1)C(=O)C(=O)NC1CC1` [Compound 18]: the “enzyme inhibitory activity on the calpain (fluorescence increase amount, FIG. 1)” value in experiment [1] is “stronger than that of SNJ-1945”.
Consider `COC(C)(C)C(=O)N[C@@H](CC(C)C)C(=O)N[C@@H](Cc1ccccc1)C(=O)C(=O)NC1CC1` [Compound 14], for which, in experiment [1], the “enzyme inhibitory activity on the calpain (fluorescence increase amount, FIG. 1)” value is “stronger than that of SNJ-1945”.
With `COCC(=O)N[C@@H](CC(C)C)C(=O)N[C@@H](Cc1ccccc1)C(=O)C(=O)NC1CC1` [Compound 13], the “enzyme inhibitory activity on the calpain (fluorescence increase amount, FIG. 1)” value in experiment [1] was “stronger than that of SNJ-1945”. In experiment [2], this molecule gave a pIC50 of 8.00.
As for `COCCC(=O)N[C@@H](CC(C)C)C(=O)N[C@@H](Cc1ccccc1)C(=O)C(=O)NC1CC1` [Compound 19, reference compound], the “enzyme inhibitory activity on the calpain (fluorescence increase amount, FIG. 1)” value in experiment [1] is on record as “comparable to that of SNJ-1945”.

For the origin of these results see patent US20250361202A1, “CALPAIN INHIBITOR” (GORYO CHEMICAL, INC., priority 2022, published 2025).
